Assay results published in EP0497299A1, “Decarestrictine and related compounds, process for their preparation and use” (HOECHST AKTIENGESELLSCHAFT, priority 1991, dated 1992).

Tested on: Cholesterinbiosynthese
Experiment: Inhibition of cholesterol biosynthesis from 14C-acetate in HEP-G2 liver cell culture
Assay type: cell-based
Details: Homo sapiens, HepG2, 3 h, HEP-G2-Zellen; for IC50: (¹⁴C)Natriumacetat, standard preparations, read-out: IC₅₀; for inhibition at 0.01 µM: Konzentration von 10⁻⁸ mol/l, read-out: Hemmung der Cholesterinbiosynthese
Description: 2. Die biologische Wirksamkeit der Verbindungen als Inhibitor an der Cholesterinbiosynthese läßt sich in vitro in Leberzellkulturen nachweisen.
Monolayer von HEP-G2-Zellen in lipoproteinfreiem Nährmedium werden mit entsprechenden Konzentrationen der zu prüfenden Substanzen der allgemeinen Formel I eine Stunde vorinkubiert. Nach Zugabe der ¹⁴C-markierten Biosynthesevorstufe (¹⁴C)Natriumacetat wird die Inkubation für 3 Stunden fortgesetzt. Danach wird ein Teil der Zellen alkalisch verseift, bei vorheriger Zugabe eines internen Standards von ³H-Cholesterin. Die Lipide der verseiften Zellen werden mit einem Gemisch aus Chloroform-Methanol extrahiert. Dieses Lipidgemisch wird nach Zusatz von Trägercholesterin präparativ dünnschichtchromatographisch aufgetrennt, die Cholesterinbande nach Anfärbung isoliert und die aus dem ¹⁴C-Precursor gebildete Menge ¹⁴C-Cholesterin szintigraphisch bestimmt. In einem aliquoten Teil der Zellen wurde Zellprotein bestimmt, so daß die in der Zelleinheit pro mg Zellprotein aus ¹⁴C-Präkusor gebildete Menge ¹⁴C-Cholesterins berechnet werden kann. Zum Vergleich für die Hemmwirkung eines zugesetzten Prüfpräparates dient die Kontrolle, so daß direkt die Hemmung der Cholesterinbiosynthese bei einer bestimmten molaren Konzentration des Prüfpräparates im Medium angegeben werden kann. In aliquoten Anteilen der Zellkultur wird die Intaktheit der Zellkultur und die fehlende Zellschädigung durch Präparateeinwirkung morphologisch (Lichtmikroskopie) beurteilt und biochemisch durch Bestimmung der Lactat-Dehydrogenase-Abgabe ins Inkubationsmedium gemessen.

Compound `CC[C@H](C)C(=O)O[C@H]1C[C@@H](C)C=C2C=C[C@H](C)[C@H](CC[C@@H]3C[C@@H](O)CC(=O)O3)[C@H]21` [Lovastatin] has an IC50 of 23 nM.
`COC(=O)C=C1CC(O)C(C(O)CC(C)O)O1` (stereo not shown) [Formel 1.5] was tested, and the inhibition at 0.01 µM was 60%.
Compound `C[C@H](CCCC(C)(C)O)[C@H]1CC[C@H]2[C@@H]3CC=C4C[C@@H](O)CC[C@]4(C)[C@H]3CC[C@]12C` [25-Hydroxycholesterin] has an IC50 of 230 nM.
`COC(=O)CC1CC(O)C(C(O)CC(C)O)O1` (stereo not shown) [Formel 1.4] showed an inhibition at 0.01 µM of 38%.
